Read-outs that look alike come from different tables or passages of the source.
Legend:
[1] = system: SD rats; test: Neuropathic pain induced by chronic constriction injury (CCI) of sciatic nerve; format: in vivo, rat
[2] = system: paclitaxel (PTX)-treated mice; test: Paclitaxel-induced peripheral neuropathy model; format: in vivo
[3] = system: C57Bl/6 mice; test: Tail flick assay for analgesia; format: in vivo
[4] = target: T1, human KOR (Homo sapiens, UniProt P41145); test: β-arrestin2 Tango assay in HTLA cells transiently transfected with human KOR; format: cell-based; details: Table 2, KOR; read-out: B-arrestin Tango Assay (pEC50) (converted)
Target sequence in this assay (P41145 whole entry, added parts left off): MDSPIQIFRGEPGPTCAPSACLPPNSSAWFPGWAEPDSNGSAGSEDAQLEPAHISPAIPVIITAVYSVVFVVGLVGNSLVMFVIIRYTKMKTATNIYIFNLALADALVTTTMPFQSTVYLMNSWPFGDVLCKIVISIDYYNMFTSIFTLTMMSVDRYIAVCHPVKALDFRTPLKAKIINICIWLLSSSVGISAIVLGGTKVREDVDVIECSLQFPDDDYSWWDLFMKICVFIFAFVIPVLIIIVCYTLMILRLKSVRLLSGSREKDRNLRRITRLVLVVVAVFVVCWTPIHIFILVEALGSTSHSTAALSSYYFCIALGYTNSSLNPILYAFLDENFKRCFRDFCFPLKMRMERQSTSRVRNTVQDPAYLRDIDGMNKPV

[5] = target: DOR (Homo sapiens, UniProt P41143); test: GloSensor assay at DOR; format: cell-based; details: given as Log IC50 (negative values)
[6] = system: C57Bl/6 mice; test: Hargreaves assay for thermal analgesia after intracerebroventricular administration; format: in vivo; details: 10 nmol
[7] = target: T1, human KOR; test: GloSensor assay, Gi-mediated cAMP inhibition in HEK-293T cells transfected with human KOR; format: cell-based;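 for agonist at KOR (pIC50): value taken from a statement in the text not a table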
Target sequence in this assay (P41145 whole entry): as the sequence (P41145 whole entry, added parts left off) above

[8] = target: MOR (Homo sapiens, UniProt P35372); test: GloSensor assay at MOR; format: cell-based; details: given as Log IC50 (negative values)
[9] = 8abd 10 mg/kg/day p.o., U50488 5 mg/kg/day i.p., 7 days, tested 16 hours after drug administration
[10] = 8abd 5 and 10 mg/kg p.o., duloxetine 10 mg/kg, 16 days

Chain of MOR (P35372 whole entry): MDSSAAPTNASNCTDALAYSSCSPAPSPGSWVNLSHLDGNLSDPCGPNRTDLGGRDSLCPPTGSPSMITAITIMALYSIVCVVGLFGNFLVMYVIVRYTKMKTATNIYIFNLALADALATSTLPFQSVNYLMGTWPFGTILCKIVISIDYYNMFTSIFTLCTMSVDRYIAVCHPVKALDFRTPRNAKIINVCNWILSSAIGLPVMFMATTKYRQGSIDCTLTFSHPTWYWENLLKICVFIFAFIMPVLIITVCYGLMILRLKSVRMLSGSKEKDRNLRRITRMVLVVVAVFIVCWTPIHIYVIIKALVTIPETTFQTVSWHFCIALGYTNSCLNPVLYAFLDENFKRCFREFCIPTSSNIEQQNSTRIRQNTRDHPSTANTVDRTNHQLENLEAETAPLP
Chain of DOR (P41143 whole entry): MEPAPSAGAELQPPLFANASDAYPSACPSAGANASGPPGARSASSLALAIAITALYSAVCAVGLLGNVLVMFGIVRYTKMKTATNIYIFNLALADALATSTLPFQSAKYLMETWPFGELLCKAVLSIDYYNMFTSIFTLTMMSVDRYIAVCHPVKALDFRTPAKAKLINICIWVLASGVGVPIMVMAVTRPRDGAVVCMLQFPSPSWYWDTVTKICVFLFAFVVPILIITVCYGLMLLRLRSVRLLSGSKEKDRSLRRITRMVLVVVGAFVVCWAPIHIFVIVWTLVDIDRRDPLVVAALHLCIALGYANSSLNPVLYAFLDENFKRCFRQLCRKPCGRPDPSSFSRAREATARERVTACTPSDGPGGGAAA

SMILES: Fc1ccc(-n2c[n+]3ccc4c5ccccc5[nH]c4c3c2-c2ccc(Br)cc2)cc1.[Cl-] [8abd, 1-(4-Bromophenyl)-2-(4-fluorophenyl)-2,11-dihydrolmidazo[1′,5′:1,2]pyrido[3,4-b]indol-4-ium chloride]
- CCI-induced thermal hyperalgesia, acute administration ([1]; 8abd 10 mg/kg p.o., U50488 5 mg/kg i.p., Hargreaves): robustly inhibited
- CCI-induced mechanical pain, acute administration ([1]; 8abd 10 mg/kg p.o., U50488 5 mg/kg i.p., von frey): robustly inhibited
- CCI-induced mechanical pain, sub-chronic administration [1, 9]: significantly blocked
- CCI-induced thermal hyperalgesia, sub-chronic administration [1, 9]: significantly blocked
- mechanical pain (mechanical hyperalgesia, Von frey hair test), chronic administration [2, 10]: significantly improved
- thermal hyperalgesia (Hargreaves test), chronic administration [2, 10]: significantly improved
- improvement in both pain behaviors relative to duloxetine ([2]; chronic administration): better improvement in both pain behaviors as compared to duloxetine
- tail flick latency time ([3]; 10 mg/kg or 5 mg/kg p.o., in comparison to vehicle treated mice): significantly increased
- duration of the analgesic effect ([3]; 8abd 5 and 10 mg/kg p.o., U50488 5 mg/kg i.p.): comparable to U50488
- analgesic effect in presence of selective KOR antagonist Norbinaltrophamine (NBN) ([3]; NBN 5 mg/kg i.p. (legend: 10 mg/kg i.p.)): completely blocked
- EC50 [4]: 224 nM
- IC50 [5]: > 10000 nM
- analgesic activity (paw withdrawal latency) [6]: exhibited analgesic activity
- G-Protein Bias factor (IC50 -Glosensor/- EC50 - Tango) ([7]; KOR, GloSensor versus Tango): 2.33
- IC50 ([7]; Table 2, KOR, read-out: GloSensor Assay (pIC50) (converted)): 1.05 nM
- IC50 ([7]; given as Log IC50 (negative values), agonist activity, inhibition of FSK-stimulated cAMP, read-out: GloSensor Assay (Log IC50) KOR (converted)): 5.01 nM
- IC50 ([7]; read-out: agonist at KOR (pIC50) (converted)): < 31.6 nM
- IC50 [8]: > 10000 nM

From patent US20250368645A1, “BETA CARBOLINE ANALOGUES AS SELECTIVE AND BIASED KAPPA OPIOID RECEPTORS AGONISTS FOR TREATING VARIOUS ASSOCIATED PATHOPHYSIOLOGICAL CONDITIONS” (COUNCIL OF SCIENTIFIC AND INDUSTRIAL RESEARCH, priority 2022, published 2025)
